From ChEMBL document CHEMBL1201862, “PubChem BioAssay data set” (2004)
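Each compound was tested at five concentrations against cells in 96-well plates for 48 hours. GI50: concentration for 50% inhibition of growth.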 Activity calls are given as the source filed them. Cut-off read from the data, not from the text of the source: active = GI50 up to about 1.1 µM and inactive = higher.

Legend:
Assay in all cases: NCI-60 cell line screen, 48 h
[1] = system: Malme-3M
[2] = system: NCI/ADR-RES
[3] = system: A549
[4] = system: NCI-H23
[5] = system: SK-MEL-5
[6] = system: KM12
[7] = system: HOP-62
[8] = system: NCI-H226
[9] = system: IGROV-1
[10] = system: HCT-116
[11] = system: OVCAR-3
[12] = system: LOX IMVI
[13] = system: BT-549
[14] = system: COLO 205
[15] = system: HL-60
[16] = system: NCI-H460
[17] = system: SNB-19
[18] = system: RPMI-8226

Measured: GI50

O=C(NC(=S)Nc1ccc2c(c1)Sc1ccccc1O2)c1ccc([N+](=O)[O-])cc1
inactive: [1] > 100 µM | [2] > 100 µM | [3] > 100 µM | [4] > 100 µM | [5] > 100 µM | [6] > 100 µM | [7] > 100 µM | [8] > 100 µM | [9] > 100 µM | [10] > 100 µM | [11] > 100 µM | [12] > 100 µM | [13] > 100 µM | [14] > 100 µM | [15] > 100 µM | [16] > 100 µM | [17] > 100 µM | [18] > 100 µM

O=C1NC2CCCCC2NC1=C(C(=O)c1ccccc1)C(=O)c1ccccc1 (centres undefined)
inactive: [1] > 100 µM | [2] 29.2 µM | [3] 34 µM | [4] 22.4 µM | [5] 27.5 µM | [6] 42.7 µM | [7] 52.6 µM | [8] 12.5 µM | [9] 26.3 µM | [10] 40.7 µM | [11] 67.5 µM | [12] 38.1 µM | [13] 10.9 µM | [14] 32.8 µM | [15] 46.7 µM | [16] 27.4 µM | [17] 65.9 µM | [18] 28.8 µM

Cc1cc(S(=O)(=O)Nc2nc(N)nc(N3CCOCC3)n2)c(SCC(=O)O)cc1Cl
inactive: [1] > 10 µM | [2] > 10 µM | [3] > 10 µM | [4] > 10 µM | [5] > 10 µM | [6] > 10 µM | [7] > 10 µM | [8] > 10 µM | [9] > 10 µM | [10] > 10 µM | [11] > 10 µM | [12] > 10 µM | [13] > 10 µM | [14] > 10 µM | [15] > 10 µM | [16] > 10 µM | [17] > 10 µM | [18] > 10 µM

CCOC(=O)/C1=C(\C)N(c2ccc(C)cc2)C(=O)c2ccccc2C(=O)c2c(OC(C)=O)ccc(OC(C)=O)c21
inactive: [1] 28.1 µM | [2] 19.2 µM | [3] 26.8 µM | [4] 19.9 µM | [5] 30 µM | [6] 15 µM | [7] 18.5 µM | [8] 14.6 µM | [9] 4.01 µM | [10] 15.3 µM | [11] 16.5 µM | [12] 14.4 µM | [13] 25.3 µM | [14] 13.5 µM | [15] 20 µM | [16] 18.3 µM | [17] 25.2 µM | [18] 13.8 µM

CCOC(=O)/C=C(/C(=O)OCC)n1ccc(=O)[nH]c1=O
inactive: [1] 1.9 µM | [2] 15.5 µM | [3] 18 µM | [4] 10.4 µM | [5] 15.3 µM | [6] 17.6 µM | [7] 19.6 µM | [8] 6 µM | [9] 15.2 µM | [10] 2.48 µM | [11] 3.59 µM | [12] 7.48 µM | [13] 12.2 µM | [14] 1.65 µM | [15] 1.78 µM | [16] 14.6 µM | [17] 15.4 µM | [18] 2.67 µM

O=C1C=C(Cl)C(=O)C(c2ccc(Cl)cc2)=C1
inactive: [1] 20.3 µM | [2] 26.4 µM | [3] 46.6 µM | [4] 23.2 µM | [5] 16.5 µM | [6] 32.3 µM | [7] 21.1 µM | [8] 20.2 µM | [9] 15 µM | [10] 19.3 µM | [11] 16.6 µM | [12] 16.1 µM | [13] 23.8 µM | [14] 16.4 µM | [15] 18.8 µM | [16] 79.6 µM | [17] 89.3 µM | [18] 12.1 µM

NC(=S)N/N=C/c1c[nH]c2ccccc12
inactive: [1] > 100 µM | [2] > 100 µM | [3] > 100 µM | [4] > 100 µM | [5] > 100 µM | [6] > 100 µM | [7] > 100 µM | [8] > 100 µM | [9] > 100 µM | [10] > 100 µM | [11] > 100 µM | [12] > 100 µM | [13] > 100 µM | [14] > 100 µM | [15] 33.7 µM | [16] > 100 µM | [17] > 100 µM | [18] 79.6 µM

CC1=NN(c2cccc(S(=O)(=O)O)c2)C2(C1)C(Cl)C(=O)N2c1nc2ccccc2s1 (centres undefined)
inactive: [1] 5.83 µM | [2] 4.99 µM | [3] 8.61 µM | [4] 4.61 µM | [5] 6.17 µM | [6] 9.23 µM | [7] 5.75 µM | [8] 5.82 µM | [9] 1.66 µM | [10] 6.47 µM | [11] 2.94 µM | [12] 1.25 µM | [13] 5.5 µM | [14] 8.3 µM | [15] 2.61 µM | [16] 9.62 µM | [17] 11.2 µM | [18] 1.83 µM
